ChEMBL document CHEMBL1201862, “PubChem BioAssay data set” (2004)
The source made the active and inactive calls.

Columns and labels:
[1] = biological target: T1, Polyadenylate-binding protein 1 (Homo sapiens, UniProt P11940); assay: MLLE domain peptide-binding blockers, IC50 – biochemical, fluorescence polarization, FITC-PAM2 peptide, dose response (AID 602259); type: functional; settings: read-out: IC50_Mean
[2] = biological target: T1, Polyadenylate-binding protein 1; assay: MLLE binding blockers, Cy5 peptide tracer – biochemical, fluorescence polarization, Cy5-PAM2 peptide, secondary, miRNA deadenylation inhibitor project, dose response (AID 602260); type: functional; settings: read-out: IC50_Mean
[3] = biological target: Cytochrome P450 2D6 (Homo sapiens, UniProt P10635);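 also: CYP2D6 member of a cytochrome P450 panel assay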
Cytochrome P450 2D6, sequence (P10635 whole entry): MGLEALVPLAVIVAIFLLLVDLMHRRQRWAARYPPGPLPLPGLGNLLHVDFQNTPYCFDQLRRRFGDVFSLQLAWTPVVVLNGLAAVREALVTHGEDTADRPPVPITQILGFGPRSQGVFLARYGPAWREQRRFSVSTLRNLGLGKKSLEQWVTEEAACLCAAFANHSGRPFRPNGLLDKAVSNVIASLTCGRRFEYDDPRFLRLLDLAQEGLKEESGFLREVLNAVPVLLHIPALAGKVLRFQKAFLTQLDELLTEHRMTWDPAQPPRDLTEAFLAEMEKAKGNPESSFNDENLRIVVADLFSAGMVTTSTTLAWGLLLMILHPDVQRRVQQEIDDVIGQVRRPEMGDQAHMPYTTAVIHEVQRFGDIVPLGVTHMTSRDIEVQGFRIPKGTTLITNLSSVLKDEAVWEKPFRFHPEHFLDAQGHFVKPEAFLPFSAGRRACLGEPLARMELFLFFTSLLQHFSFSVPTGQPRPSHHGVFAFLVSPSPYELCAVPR

[4] = biological target: T2, Heat shock factor protein 1 (Mus musculus, UniProt P38532); assay: enhancement of HSF1-driven luciferase signal – cell-based, NIH3T3, luminescence, dose retest, confirmation (AID 435004); type: functional;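 also: stress induced by proteasome inhibitor MG132 added 30 min after compound; luciferase reporter driven by HSF1 response element in NIH3T3 cells; actives raise luminescence as potentiators of the MG132 stress response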
T2 sequence (P38532 whole entry): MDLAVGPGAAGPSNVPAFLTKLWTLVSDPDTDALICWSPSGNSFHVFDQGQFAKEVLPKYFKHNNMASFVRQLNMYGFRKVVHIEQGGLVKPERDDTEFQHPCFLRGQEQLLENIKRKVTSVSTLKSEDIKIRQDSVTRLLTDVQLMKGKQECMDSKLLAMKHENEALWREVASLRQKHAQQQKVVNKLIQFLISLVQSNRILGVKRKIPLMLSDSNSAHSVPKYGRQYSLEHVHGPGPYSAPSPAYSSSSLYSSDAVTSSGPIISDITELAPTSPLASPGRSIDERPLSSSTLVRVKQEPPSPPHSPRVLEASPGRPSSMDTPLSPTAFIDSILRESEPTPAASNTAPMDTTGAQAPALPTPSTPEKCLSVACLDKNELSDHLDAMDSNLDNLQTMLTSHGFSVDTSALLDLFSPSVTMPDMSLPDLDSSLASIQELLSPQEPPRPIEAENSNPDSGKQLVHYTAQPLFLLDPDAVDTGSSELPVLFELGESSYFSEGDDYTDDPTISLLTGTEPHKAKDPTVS

[5] = biological target: T3, Protein RecA (Mycobacterium tuberculosis, UniProt P9WHJ3); assay: Fluorescence Cell-Free Homogeneous Dose Retest to Identify Inhibitors of RecA-Intein Splicing Activity. [Related pubchem assays (depositor defined):AID2097, AID2223, AID489010, AID492950]; type: functional
T3 sequence (P9WHJ3 whole entry): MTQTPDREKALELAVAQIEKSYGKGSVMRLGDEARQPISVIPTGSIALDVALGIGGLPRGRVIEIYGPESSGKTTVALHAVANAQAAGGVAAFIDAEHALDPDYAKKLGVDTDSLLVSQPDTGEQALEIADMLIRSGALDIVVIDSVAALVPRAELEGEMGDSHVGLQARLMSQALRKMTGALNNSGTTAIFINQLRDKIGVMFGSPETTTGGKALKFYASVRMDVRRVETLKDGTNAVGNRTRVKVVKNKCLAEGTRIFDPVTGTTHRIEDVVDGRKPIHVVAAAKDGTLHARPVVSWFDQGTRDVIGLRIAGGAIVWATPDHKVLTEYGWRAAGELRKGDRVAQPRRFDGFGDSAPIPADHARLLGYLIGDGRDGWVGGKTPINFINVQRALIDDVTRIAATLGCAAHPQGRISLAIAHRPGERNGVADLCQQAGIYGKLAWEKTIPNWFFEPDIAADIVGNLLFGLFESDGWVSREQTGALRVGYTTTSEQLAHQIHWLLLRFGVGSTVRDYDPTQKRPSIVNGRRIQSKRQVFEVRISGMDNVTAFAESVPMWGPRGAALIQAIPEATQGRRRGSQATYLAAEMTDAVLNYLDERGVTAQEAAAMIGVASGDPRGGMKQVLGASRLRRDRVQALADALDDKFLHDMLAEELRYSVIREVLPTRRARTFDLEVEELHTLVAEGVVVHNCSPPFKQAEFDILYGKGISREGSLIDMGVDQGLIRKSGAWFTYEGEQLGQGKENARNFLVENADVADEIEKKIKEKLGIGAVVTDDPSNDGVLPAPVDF

[6] = biological target: T4, Replicative DNA helicase DnaB (Mycobacterium tuberculosis, UniProt P9WMR3); assay: DnaB intein splicing inhibitors, dose response, biochemical, cell-free fluorescence (AID 449749); type: functional
T4 sequence (P9WMR3 whole entry): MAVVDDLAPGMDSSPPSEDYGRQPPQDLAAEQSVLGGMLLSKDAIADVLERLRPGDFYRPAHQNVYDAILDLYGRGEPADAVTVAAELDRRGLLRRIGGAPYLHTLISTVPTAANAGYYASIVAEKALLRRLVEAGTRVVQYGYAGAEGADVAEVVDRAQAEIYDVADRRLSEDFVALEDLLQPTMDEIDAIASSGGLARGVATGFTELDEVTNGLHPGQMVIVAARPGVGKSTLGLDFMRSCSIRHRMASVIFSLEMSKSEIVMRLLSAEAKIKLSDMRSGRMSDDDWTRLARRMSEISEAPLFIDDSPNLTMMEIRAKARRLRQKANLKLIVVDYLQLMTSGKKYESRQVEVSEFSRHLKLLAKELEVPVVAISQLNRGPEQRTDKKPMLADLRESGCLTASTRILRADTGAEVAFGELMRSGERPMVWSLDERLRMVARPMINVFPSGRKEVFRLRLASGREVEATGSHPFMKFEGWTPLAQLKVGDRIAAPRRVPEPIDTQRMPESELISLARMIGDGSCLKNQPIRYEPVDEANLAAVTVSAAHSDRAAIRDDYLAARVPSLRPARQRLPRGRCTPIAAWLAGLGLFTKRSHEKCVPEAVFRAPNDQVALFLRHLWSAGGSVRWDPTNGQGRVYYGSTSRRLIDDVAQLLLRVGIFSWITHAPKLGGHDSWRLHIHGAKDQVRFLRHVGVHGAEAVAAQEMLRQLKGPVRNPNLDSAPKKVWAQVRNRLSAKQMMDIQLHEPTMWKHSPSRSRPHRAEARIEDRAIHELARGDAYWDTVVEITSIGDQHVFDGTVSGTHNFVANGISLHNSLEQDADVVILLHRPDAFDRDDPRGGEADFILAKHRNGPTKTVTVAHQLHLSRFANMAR

[7] = viability of uninfected HEp-2 cells – cell-based, HTS, cytotoxicity control for RSV inhibitor project, dose response (AID 2410); type: functional; settings: human respiratory syncytial virus
[8] = biological target: T5, Corticotropin-releasing factor receptor 2/Corticotropin-releasing factor-binding protein (Homo sapiens, UniProt P24387+Q13324); assay: Dose Response confirmation of uHTS hits for small molecule antagonists of the CRF-binding protein and CRF-R2 receptor complex.; type: functional; settings: read-out: IC50_Mean
T5 sequence (Q13324 whole entry): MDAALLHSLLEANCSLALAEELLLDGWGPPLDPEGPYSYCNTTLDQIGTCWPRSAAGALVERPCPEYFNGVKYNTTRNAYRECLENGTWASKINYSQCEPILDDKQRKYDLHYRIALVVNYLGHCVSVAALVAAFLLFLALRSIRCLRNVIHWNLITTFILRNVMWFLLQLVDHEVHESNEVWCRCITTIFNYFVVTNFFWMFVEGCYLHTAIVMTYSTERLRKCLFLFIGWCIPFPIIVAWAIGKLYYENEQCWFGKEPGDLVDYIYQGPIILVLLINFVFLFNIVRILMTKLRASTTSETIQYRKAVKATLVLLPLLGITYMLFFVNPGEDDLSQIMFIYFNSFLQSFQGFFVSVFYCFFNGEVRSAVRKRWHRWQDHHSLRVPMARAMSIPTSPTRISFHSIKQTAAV
T5 sequence (P24387 whole entry): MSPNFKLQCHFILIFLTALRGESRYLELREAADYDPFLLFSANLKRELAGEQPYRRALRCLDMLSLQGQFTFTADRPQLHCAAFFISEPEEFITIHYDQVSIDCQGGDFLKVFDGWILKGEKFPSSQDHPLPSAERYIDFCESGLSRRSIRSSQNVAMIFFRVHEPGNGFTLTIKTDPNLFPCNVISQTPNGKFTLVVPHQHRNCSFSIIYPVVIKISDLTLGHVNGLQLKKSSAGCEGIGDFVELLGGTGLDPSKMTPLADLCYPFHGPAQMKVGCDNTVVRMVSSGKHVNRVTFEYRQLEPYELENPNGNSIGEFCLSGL

[9] = biological target: T5, Corticotropin-releasing factor receptor 2/Corticotropin-releasing factor-binding protein; assay: activators of CRF receptor 2 with binding protein – uHTS hits, confirmation (AID 602473); type: functional; settings: read-out: EC50_Mean
[10] = biological target: Cytochrome P450 2C19 (Homo sapiens, UniProt P33261); assay: Cytochrome panel assay with activity outcomes. Panel member name: p450-cyp2c19 Compounds with AC50 equal or less than 10 uM are considered active; type: functional; settings: read-out: AC50
Cytochrome P450 2C19, sequence (P33261 whole entry): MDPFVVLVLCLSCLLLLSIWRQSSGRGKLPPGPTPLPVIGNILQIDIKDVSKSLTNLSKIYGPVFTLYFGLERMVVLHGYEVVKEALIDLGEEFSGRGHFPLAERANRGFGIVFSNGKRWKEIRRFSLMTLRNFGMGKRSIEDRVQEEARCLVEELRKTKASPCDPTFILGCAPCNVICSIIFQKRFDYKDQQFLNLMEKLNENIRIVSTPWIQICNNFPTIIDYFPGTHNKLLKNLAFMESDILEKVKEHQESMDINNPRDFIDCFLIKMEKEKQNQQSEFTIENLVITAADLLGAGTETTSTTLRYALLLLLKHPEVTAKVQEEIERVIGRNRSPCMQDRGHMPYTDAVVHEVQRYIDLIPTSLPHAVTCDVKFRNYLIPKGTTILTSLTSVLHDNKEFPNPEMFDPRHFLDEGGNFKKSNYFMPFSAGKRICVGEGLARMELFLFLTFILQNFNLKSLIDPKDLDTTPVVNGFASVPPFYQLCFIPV

[11] = Trypanosoma cruzi growth suppression in host cells – NIH3T3 host cells, beta-gal luminescence, confirmation (AID 2044); type: functional, cell-based;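 also: intracellular parasites grown in NIH/3T3 mouse fibroblasts as host cells; luminescent beta-galactosidase reporter signal from transgenic T. cruzi replicating inside host cells; inhibitors lower the luminescence signal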
[12] = tested on: INS1; assay: INS-1E survival protection against cytokine death – cell-based, luminescence, retest, dose response (AID 449756); type: functional; settings: Rattus norvegicus;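 also: cell death triggered by IL-1 beta plus TNF-alpha plus IFN-gamma mixture; protective hits raise ATP signal compared with cytokine alone wells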
[13] = NIH3T3 cell viability loss – ATP luminescence, mouse fibroblasts, counter-screen, dose response (AID 2010); type: functional, cell-based;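 also: cells exposed to compound for about 90 hours before reading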

T1 sequence (P11940 whole entry, the tested form may be a part): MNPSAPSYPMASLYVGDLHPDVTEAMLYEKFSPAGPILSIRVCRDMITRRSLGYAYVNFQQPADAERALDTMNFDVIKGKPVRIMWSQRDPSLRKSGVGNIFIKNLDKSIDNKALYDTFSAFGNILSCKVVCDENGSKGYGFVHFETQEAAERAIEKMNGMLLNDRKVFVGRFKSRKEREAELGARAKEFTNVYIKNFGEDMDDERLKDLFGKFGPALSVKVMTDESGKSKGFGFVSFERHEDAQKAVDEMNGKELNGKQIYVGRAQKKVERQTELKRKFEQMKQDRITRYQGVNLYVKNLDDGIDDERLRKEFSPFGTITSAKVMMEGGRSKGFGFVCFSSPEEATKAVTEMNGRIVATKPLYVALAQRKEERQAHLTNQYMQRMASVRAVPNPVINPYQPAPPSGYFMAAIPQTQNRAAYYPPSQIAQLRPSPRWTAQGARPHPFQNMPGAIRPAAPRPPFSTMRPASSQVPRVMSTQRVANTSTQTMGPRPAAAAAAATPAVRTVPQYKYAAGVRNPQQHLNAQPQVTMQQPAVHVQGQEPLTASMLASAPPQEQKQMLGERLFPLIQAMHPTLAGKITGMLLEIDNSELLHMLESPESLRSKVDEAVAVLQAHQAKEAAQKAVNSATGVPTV

For `Cn1ccnc1P(=S)(c1nccn1C)N1CCOCC1`, which IC50 [1] is on record?
The IC50 was > 66 µM (inactive).

And the IC50 [2]?
The IC50 was > 66 µM (inactive).

Which AC50 [3] does the source give for `Cn1c(SCc2nc3ccccc3n2CCO)nc2ccccc21` here?
The AC50 was 20 µM (inconclusive).

Which AC50 [3] does the source give for `COC(=O)[C@@]1(Cc2ccccc2)[C@H]2c3cc(C(=O)N(C)C)n(Cc4ccccc4)c3C[C@H]2CN1C(=O)c1ccccc1` here?
The AC50 was 39.8 µM (inconclusive).

For `C=CCn1c(SCC(=O)Nc2cc(NC(C)=O)ccc2OC)nnc1-c1cccnc1`, which EC50 [4] is on record?
Its EC50 is > 260 µM (inactive).

With `COC(=O)COc1ccc(C(c2c(C)n[nH]c2O)c2c(C)n[nH]c2O)cc1` as the compound, how does the EC50 [5] read?
Its EC50 is 0.377 µM (active).

And the AC50 [6]?
The AC50 was 0.347 µM (active).

For `CC(C)c1cccc2c([Si](C)(C)C)c3c(nc12)-c1cccc(=O)n1C3`, which AC50 [3] is on record?
Its AC50 is 20 µM (inconclusive).

With `CN(c1cccc(NC(=O)CN(c2cccc(Cl)c2)S(=O)(=O)c2ccc(Cl)cc2)c1)S(C)(=O)=O` as the compound, how does the EC50 [4] read?
The EC50 was > 260 µM (inactive).

Which IC50 [1] does the source give for `Cc1cc[n+](-c2[n-]c(=O)sc2C=NNC(=O)c2ccccc2)cc1` here?
Its IC50 is > 66 µM (inactive).

What about the IC50 [2] of the same compound?
The IC50 was > 66 µM (inactive).

Which CC50 [7] does the source give for `Cc1nonc1C1CCCN1Cc1c[nH]nc1-c1ccc(-c2ccccc2)cc1` (configuration not stated) here?
The CC50 was 21.4 µM (active).

And the EC50 [4]?
The EC50 was 35.2 µM (active).

Which IC50 [8] does the source give for `COc1cccc(C(=O)N2CCCC(CCC(=O)NCc3ccc(F)c(F)c3)C2)c1` (configuration not stated) here?
Its IC50 is > 47.1 µM (inactive).

What about the EC50 [9] of the same compound?
The EC50 was > 53 µM (inactive).

With `COc1cccc(-c2nc(NCc3cnc(C)cn3)c3ccccc3n2)c1` as the compound, how does the AC50 [10] read?
The AC50 was 25.1 µM (inconclusive).

What about the AC50 [3] of the same compound?
The AC50 was 39.8 µM (inconclusive).

Which EC50 [11] does the source give for `Cc1cc2cc(CN3C(=O)c4ccccc4C3=O)ccc2n1C` here?
Its EC50 is < 0.1 µM (active).

What about the AC50 [12] of the same compound?
The AC50 was 13.3 µM (active).

What about the IC50 [1] of the same compound?
The IC50 was 55.2 µM (inactive).

And the EC50 [13]?
The EC50 was > 60 µM (not active).

What about the IC50 [2] of the same compound?
Its IC50 is > 66 µM (inactive).

For `CC(C)c1ccc(/C=C/C(=O)n2nnc3ccccc32)cc1`, which CC50 [7] is on record?
The CC50 was 25.1 µM (active).

And the EC50 [4]?
Its EC50 is 14.2 µM (active).

With `O=S(=O)(NC1c2cccc3cccc(c23)C1N1CCNCC1)c1ccc(Cl)cc1` (configuration not stated) as the compound, how does the EC50 [4] read?
The EC50 was > 260 µM (inactive).

Which AC50 [3] does the source give for `CN(C)c1ncc2nc(-c3ccc(Cl)cc3)c(=O)n(C[C@H]3CCCO3)c2n1` here?
Its AC50 is 1.58 µM (inconclusive).

For `CCOC(=O)Cn1nnnc1C(C(C)C)N(Cc1cc2c(C)cc(C)cc2[nH]c1=O)C1CCCC1` (configuration not stated), which EC50 [4] is on record?
Its EC50 is 36.9 µM (active).
